According to EP4600260A1, “KERATIN YK93-4, AND PREPARATION METHOD THEREFOR, PHARMACEUTICAL COMPOSITION THEREOF AND USE THEREOF” (INSTITUTE OF MATERIA MEDICA, CHINESE ACADEMY OF MEDICAL …, priority 2022, dated 2024):

Tested on: EL-4 lymphoma
Conditions: cyclophosphamide 100 mg/kg, intraperitoneal, single; routine blood analysis, P<0.05
Experimental: Preparation of experimental animals: The experimental animals were adapted to the experimental environment (temperature 22°C±2°C, relative humidity 50%±2%) for 1 day.
Subcutaneous inoculation of EL-4 cell suspension to replicate a mouse lymphoma model: The EL-4 tumor tissue was ground into a suspension using a glass homogenizer, the tumor suspension was aspirated with a syringe, the number of live cells was calculated, the cell concentration was adjusted to 2.0*10^6/ml with physiological saline, and then the suspension was injected into the left armpit of mice with 0.2 ml/mouse. […] On the day of treatment, weight was measured, 20µl of blood was obtained from the orbital blood and the routine blood analysis was performed. The tumor blocks were stripped, weighed and photographed, and the tumor suppression rate was calculated.
The tumor suppression rate [(The average weight of the tumor in the normal control group - the average weight of the tumor in the experimental group) / The average weight of the tumor in the normal control group × 100 %] and average value, standard deviation and standard errors of tumor weight were calculated. The data from the groups were compared with each other by T.TEST, and P<0.05 was considered as a significant difference.

O=P1(N(CCCl)CCCl)NCCCO1 (stereo not shown) [cyclophosphamide, Cyclophosphamide]
number of leukocytes, lymphocytes, monocytes, and neutrophils: significantly reduced
